From paper PMC5815904 (Circulation research, 2017) come the findings set out here.

Assay [1] deals with T1, Pannexin 1 (PANX1) (Homo sapiens, UniProt Q96RD7). The assay is described as follows: whole-cell patch clamp in apoptotic Jurkat cells. The assay is classed as cell-based. For orientation: Patch clamp records ionic current or voltage across a cell membrane.
Target sequence in this assay (Q96RD7 whole entry): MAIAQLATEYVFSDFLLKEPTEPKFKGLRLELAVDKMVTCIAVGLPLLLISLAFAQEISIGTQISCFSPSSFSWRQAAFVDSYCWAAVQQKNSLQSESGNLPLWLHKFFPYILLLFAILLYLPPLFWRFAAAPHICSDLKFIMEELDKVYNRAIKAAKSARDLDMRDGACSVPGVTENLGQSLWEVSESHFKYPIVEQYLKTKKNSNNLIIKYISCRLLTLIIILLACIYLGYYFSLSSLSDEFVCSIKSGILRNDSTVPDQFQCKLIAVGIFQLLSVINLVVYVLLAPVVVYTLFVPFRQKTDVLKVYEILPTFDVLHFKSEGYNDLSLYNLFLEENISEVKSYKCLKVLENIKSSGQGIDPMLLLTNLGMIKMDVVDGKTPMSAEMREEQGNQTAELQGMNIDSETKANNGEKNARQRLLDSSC
Assay [2] has as its target T1, Pannexin 1 (PANX1). The assay is described as follows: whole-cell patch clamp in HEK293T. The assay is classed as cell-based.
Target sequence in this assay (Q96RD7 1-379 limits assumed): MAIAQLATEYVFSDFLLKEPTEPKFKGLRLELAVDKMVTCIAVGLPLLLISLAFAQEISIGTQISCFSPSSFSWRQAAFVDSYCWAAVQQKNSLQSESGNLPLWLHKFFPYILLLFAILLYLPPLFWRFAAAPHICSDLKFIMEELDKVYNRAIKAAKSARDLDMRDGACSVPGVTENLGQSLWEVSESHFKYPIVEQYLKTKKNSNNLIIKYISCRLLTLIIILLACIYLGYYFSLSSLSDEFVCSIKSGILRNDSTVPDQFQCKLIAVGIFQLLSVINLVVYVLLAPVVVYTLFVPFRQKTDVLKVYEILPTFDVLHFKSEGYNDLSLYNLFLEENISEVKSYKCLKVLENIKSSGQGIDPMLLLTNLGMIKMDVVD

`CC1(C)[C@@H](OC(=O)CCC(=O)O)CC[C@]2(C)[C@H]3C(=O)C=C4[C@@H]5C[C@@](C)(C(=O)O)CC[C@]5(C)CC[C@@]4(C)[C@]3(C)CC[C@@H]12` [carbenoxolone]: the “whole-cell patch clamp in apoptotic Jurkat cells” value in assay [1] is on record as “the current sensitive to spironolactone was fully blocked by carbenoxolone (CBX), a drug known to inhibit PANX1”.

Take `CC(=O)S[C@@H]1CC2=CC(=O)CC[C@]2(C)[C@H]2CC[C@@]3(C)[C@@H](CC[C@@]34CCC(=O)O4)[C@H]12` [spironolactone]: the IC50 in assay [2] was determined as 8.7 ± 1.5 µM.

Usually IC50 stands for the midpoint of a concentration-inhibition curve. Low readings indicate greater potency, high ones weaker potency.
